The source of these data is patent publication US11285156B2, “Substituted piperazines as KRAS G12C inhibitors” (Amgen Inc., priority 2018, dated 2022).

The experiment deals with GDP-bound KRAS protein (aa 1-169), containing both G12C and C118A amino acid substitutions (Homo sapiens (Human), UniProt P01116, C118A/G12C). Briefly: Coupled nucleotide exchange assay (SOS-mediated nucleotide exchange, AlphaScreen). The format is biochemical. To be noted: 5 min compound pre-incubation; for IC50: read-out: Coupled exchange IC50 (5 min; μM).
Chain of GDP-bound KRAS protein (aa 1-169), containing both G12C and C118A amino acid substitutions (P01116 other isoform, or with tags, fused parts or gaps G12C/C118A): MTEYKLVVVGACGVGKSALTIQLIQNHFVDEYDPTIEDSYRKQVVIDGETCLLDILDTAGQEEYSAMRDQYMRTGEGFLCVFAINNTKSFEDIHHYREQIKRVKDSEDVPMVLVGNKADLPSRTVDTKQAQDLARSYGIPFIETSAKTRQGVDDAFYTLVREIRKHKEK

As usually defined, the IC50 is the concentration that gives 50% inhibition.

Consider `C=CC(=O)N1C[C@H](C)N(c2nc(=O)n(-c3c(C)ccnc3C(C)C)c3nc(-c4ccccc4N(C)C(C)=O)c(Cl)cc23)C[C@H]1C` (atropisomer, axis not shown; (M)) [Example 129-3, (M)-N-[2-[6-Chloro-4-[(2S,5R)-2,5-dimethyl-4-prop-2-enoyl-piperazin-1-yl]-1-(2-isopropyl-4-methyl-3-pyridyl)-2-oxo-pyrido[2,3-d]pyrimidin-7-yl]phenyl]-N-methyl-acetamide], for which the IC50 stood at 0.352 µM.

For `C=CC(=O)N1C[C@H](C)N(c2nc(=O)n(-c3c(C)ccnc3C(C)C)c3nc(-c4cc(O)cc5ccccc45)c(F)cc23)C[C@H]1C` (atropisomer, axis not shown; (M)) [Example 132-2, (M)-4-[(2S,5R)-2,5-dimethyl-4-prop-2-enoyl-piperazin-1-yl]-6-fluoro-7-(3-hydroxy-1-naphthyl)-1-(2-isopropyl-4-methyl-3-pyridyl)pyrido[2,3-d]pyrimidin-2-one], the half-inhibitory concentration (IC50) came to 0.57 µM.

On to `C=CC(=O)N1CCN(c2nc(=O)n(-c3c(C)ccnc3C(C)C)c3nc(Cl)c(Cl)cc23)CC1CC#N` (atropisomer, axis not shown; (M)) [Example 144-2, (M)-2-[4-[6,7-Dichloro-1-(2-isopropyl-4-methyl-3-pyridyl)-2-oxo-pyrido[2,3-d]pyrimidin-4-yl]-1-prop-2-enoyl-piperazin-2-yl]acetonitrile], for which the IC50 is 24.9 µM.

With `C=CC(=O)N1CCN(c2nc(=O)n(-c3c(C)ccnc3C(C)C)c3nc(Cl)c(Cl)cc23)CC1CC#N` (atropisomer, axis not shown; (M)) [Example 144-2-1, (M)-2-[4-[6,7-Dichloro-1-(2-isopropyl-4-methyl-3-pyridyl)-2-oxo-pyrido[2,3-d]pyrimidin-4-yl]-1-prop-2-enoyl-piperazin-2-yl]acetonitrile], the IC50 amounted to 63.7 µM.

Take `C=CC(=O)N1C[C@H](C)N(c2nc(=O)n(-c3c(C)ccnc3C(C)C)c3nc(C45CCCCC4C5)c(Cl)cc23)C[C@H]1C` (atropisomer, axis not shown; (M)) [Example 207, (M)-6-Chloro-4-[(2S,5R)-2,5-dimethyl-4-prop-2-enoyl-piperazin-1-yl]-1-(2-isopropyl-4-methyl-3-pyridyl)-7-[norcaran-1-yl]pyrido[2,3-d]pyrimidin-2-one]: the “Coupled exchange IC50 (5 min; μM)” value is 0.932 µM.

For the compound `C=CC(=O)N1CCN(c2nc(=O)n(-c3c(C)ccnc3C(C)C)c3nc(-c4ccccc4F)c(Cl)cc23)[C@@H]2C[C@@H]21` (atropisomer, axis not shown; (M)) [Example 222-1, (M)-4-((1R,6S)-5-Acryloyl-2,5-diazabicyclo[4.1.0]heptan-2-yl)-6-chloro-7-(2-fluorophenyl)-1-(2-isopropyl-4-methylpyridin-3-yl)pyrido[2,3-d]pyrimidin-2(1H)-one], the half-maximal inhibitory concentration (IC50) worked out at 0.95 µM.

Take `C=CC(=O)N1C[C@H](C)N(c2nc(=O)n(-c3c(C)ccnc3C(C)C)c3nc(N4CCCCC4C)c(Cl)cc23)C[C@H]1C` (mixture of isomers) [Example 69-12, (M)-6-Chloro-4-[(2S,5R)-2,5-dimethyl-4-prop-2-enoyl-piperazin-1-yl]-1-(2-isopropyl-4-methyl-3-pyridyl)-7-[(2SR)-2-methyl-1-piperidyl]pyrido[2,3-d]pyrimidin-2-one]: the “Coupled exchange IC50 (5 min; μM)” value worked out at 2.88 µM.

Turning to `C=CC(=O)N1C[C@H](C)N(c2nc(=O)n(-c3c(CN4CCCC4)cccc3C(C)C)c3nc(-c4ccccc4F)c(Cl)cc23)C[C@H]1C` (single isomer, unassigned) [Example 80-10-1], the IC50 worked out at 2.04 µM.

Consider `C=CC(=O)N1C[C@H](C)N(c2nc(=O)n(-c3c(CN(C)C)cccc3C(C)C)c3nc(-c4ccccc4F)c(Cl)cc23)C[C@H]1C` (single isomer, unassigned) [Example 80-14-1], for which the IC50 came out at 1.26 µM.

With `C=CC(=O)N1C[C@H](C)N(c2nc(=O)n(-c3c(CN(C)C)ccnc3C(C)C)c3nc(-c4ccccc4F)c(Cl)cc23)C[C@H]1C` (single isomer, unassigned) [Example 80-16-2], the IC50 amounted to 0.903 µM.

On to `C=CC(=O)N1C[C@H](C)N(c2nc(=O)n(-c3c(CN(C)C)ncnc3C(C)C)c3nc(-c4ccccc4F)c(Cl)cc23)C[C@H]1C` (single isomer, unassigned) [Example 80-18-1], for which the IC50 was determined as 1.39 µM.

Consider `C=CC(=O)N1C[C@H](C)N(c2nc(=O)n(-c3c(C)cc(CN(C)C)cc3C(C)C)c3nc(-c4ccccc4F)c(F)cc23)C[C@H]1C` (single isomer, unassigned) [Example 80-20-1], for which the IC50 is 13.9 µM.

On to `C=CC(=O)N1C[C@H](C)N(c2nc(=O)n(-c3c(C)cc(CN(C)C)cc3C(C)C)c3nc(-c4c(O)cccc4F)c(F)cc23)C[C@H]1C` (single isomer, unassigned) [Example 80-21-1], for which the IC50 was 0.949 µM.

Consider `C=CC(=O)N1C[C@H](C)N(c2nc(=O)n(-c3c(Cl)ncnc3C(C)C)c3nc(-c4ccccc4C)c(Cl)cc23)C[C@H]1C` (single isomer, unassigned) [Example 102-6-2], for which the IC50 is 0.726 µM.

Consider `C=CC(=O)N1C[C@H](C)N(c2nc(=O)n(-c3c(C)cc(P(C)(C)=O)cc3C(C)C)c3nc(-c4ccccc4F)c(Cl)cc23)C[C@H]1C` (single isomer, unassigned) [Example 102-7-2], for which the concentration for half-maximal inhibition (IC50) stood at 5.28 µM.

Regarding `C=CC(=O)N1C[C@H](C)N(c2nc(=O)n(-c3c(N(C)C)ccnc3C(C)C)c3nc(-c4ccccc4C(C)C)c(Cl)cc23)C[C@H]1C` (single isomer, unassigned) [Example 103-1-1], the half-maximal inhibitory concentration (IC50) stood at 1.26 µM.

For `C=CC(=O)N1C[C@H](C)N(c2nc(=O)n(-c3c(N(CC)CC)ccnc3C(C)C)c3nc(-c4ccccc4C(C)C)c(Cl)cc23)C[C@H]1C` (single isomer, unassigned) [Example 103-6-1], the 50% inhibitory concentration (IC50) turned out to be 1.15 µM.

For the compound `C=CC(=O)N1C[C@H](C)N(c2nc(=O)n(-c3c(N(C)C)ccnc3C(C)C)c3nc(-c4ccccc4C)c(Cl)cc23)C[C@H]1C` (single isomer, unassigned) [Example 103-7-1], the IC50 came to 0.653 µM.

For `C=CC(=O)N1C[C@H](C)N(c2nc(=O)n(-c3c(C)ccnc3C(C)C)c3nc(-c4ccccc4F)c(Cl)nc23)C[C@H]1C` (single isomer, unassigned) [Example 106-6-1], the IC50 was 3.67 µM.

Regarding `C=CC(=O)N1C[C@H](C)N(c2nc(=O)n(-c3c(CC)ncnc3C(C)C)c3nc(-c4ccccc4C)c(Cl)cc23)C[C@H]1C` (single isomer, unassigned) [Example 109-2-2], the IC50 came out at 0.226 µM.

With `C=CC(=O)N1C[C@H](C)N(c2nc(=O)n(-c3c(C)cc(CN(C)C)cc3C(C)C)c3nc(-c4ccccc4F)c(Cl)cc23)C[C@H]1C` (single isomer, unassigned) [Example 121-4], the “Coupled exchange IC50 (5 min; μM)” value is 1.48 µM.

For the compound `C=CC(=O)N1C[C@H](C)N(c2nc(=O)n(-c3c(N(C)C)ccnc3C(C)C)c3nc(-c4c(F)cccc4NC(=O)CC)c(Cl)cc23)C[C@H]1C` (single isomer, unassigned) [Example 122-2-1], the IC50 is 17.3 µM.

`C=CC(=O)N1C[C@H](C)N(c2nc(=O)n(-c3c(N(C)C)ccnc3C(C)C)c3nc(-c4c(F)cccc4NC(=O)C4CC4)c(Cl)cc23)C[C@H]1C` (single isomer, unassigned) [Example 122-3-1]: the IC50 is 6.82 µM.

In the case of `C=CC(=O)N1[C@H](C)CN(c2nc(=O)n(-c3c(C)cc(N)nc3C(C)C)c3nc(-c4c(O)cccc4F)c(F)cc23)C[C@@H]1C` (single isomer, unassigned) [Example 123-1], the IC50 was determined as 1.25 µM.

Take `C=CC(=O)N1[C@H](C)CN(c2nc(=O)n(-c3c(C)cc(N)nc3C(C)C)c3nc(-c4ccccc4F)c(F)cc23)C[C@@H]1C` (single isomer, unassigned) [Example 123-3]: the IC50 was found to be 14 µM.

In the case of `C=CC(=O)N1[C@H](C)CN(c2nc(=O)n(-c3c(C)cc(N)nc3C(C)C)c3nc(-c4ccccc4F)c(F)cc23)C[C@@H]1C` (single isomer, unassigned) [Example 123-4], the IC50 came out at 1 µM.

Take `C=CC(=O)N1CCN(c2nc(=O)n(-c3c(C)ccnc3C(C)C)c3nc(-c4c(O)cccc4F)c(F)cc23)C(C)C1C` (single isomer, unassigned) [Example 124-14-1, 4-[cis-2,3-dimethyl-4-prop-2-enoyl-piperazin-1-yl]-6-fluoro-7-(2-fluoro-6-hydroxy-phenyl)-1-(2-isopropyl-4-methyl-3-pyridyl)pyrido[2,3-d]pyrimidin-2-one]: the IC50 worked out at 22.2 µM.

As for `C=CC(=O)N1CCN(c2nc(=O)n(-c3c(C)ccnc3C(C)C)c3nc(-c4c(O)cccc4F)c(F)cc23)C(C)C1C` (single isomer, unassigned) [Example 124-14-2, 4-[cis-2,3-dimethyl-4-prop-2-enoyl-piperazin-1-yl]-6-fluoro-7-(2-fluoro-6-hydroxy-phenyl)-1-(2-isopropyl-4-methyl-3-pyridyl)pyrido[2,3-d]pyrimidin-2-one], the IC50 stood at 59.5 µM.

On to `C=CC(=O)N1CCN(c2nc(=O)n(-c3c(C)ccnc3C(C)C)c3nc(-c4c(O)cccc4F)c(F)cc23)C(C)C1C` (single isomer, unassigned) [Example 124-16-1, 4-[trans-2,3-dimethyl-4-prop-2-enoyl-piperazin-1-yl]-6-fluoro-7-(2-fluoro-6-hydroxy-phenyl)-1-(2-isopropyl-4-methyl-3-pyridyl)pyrido[2,3-d]pyrimidin-2-one], for which the IC50 was 1.12 µM.

Regarding `C=CC(=O)N1CCN(c2nc(=O)n(-c3c(C)ccnc3C(C)C)c3nc(-c4c(O)cccc4F)c(F)cc23)C(C)C1C` (single isomer, unassigned) [Example 124-16-2, 4-[trans-2,3-dimethyl-4-prop-2-enoyl-piperazin-1-yl]-6-fluoro-7-(2-fluoro-6-hydroxy-phenyl)-1-(2-isopropyl-4-methyl-3-pyridyl)pyrido[2,3-d]pyrimidin-2-one], the IC50 is 7.37 µM.

Regarding `C=CC(=O)N1C[C@H](C)N(c2nc(=O)n(-c3c(C(C)C)ccnc3C(C)C)c3nc(-c4ccccc4C)c(F)cc23)C[C@H]1C` (single isomer, unassigned) [Example 125-5], the IC50 amounted to 0.46 µM.

With `C=CC(=O)N1C[C@H](C)N(c2nc(=O)n3c4nc(c(Cl)cc24)-c2ccccc2C/C=C/Cc2cccc(C(C)C)c2-3)C[C@H]1C` (single isomer, unassigned) [Example 146-1-1], the IC50 came out at 9.43 µM.
